Laboratory results reported in US8952024B2, “Herbicidal pyrimidone derivatives” (E I du Pont de Nemours and Company, priority 2009, dated 2015).

Key:
Assay in all cases: Test B pre-/postemergence plant response
Type in all cases: in vivo
[1] = test system: nightshade (eastern black nightshade, Solanum ptycanthum); settings: Preemergence
Method in brief: (§1)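 Each species received compound formulated in non-phytotoxic solvent with surfactant, either at planting into a loam and sand blend or as a foliar spray once plants reached 2 to 18 cm in peat-based medium. Plants stayed in the greenhouse 13 to 15 days before visual evaluation against controls, scored 0 (no effect) to 100 (complete control).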

[2] = test system: lambsquarters (Chenopodium album)
Method in brief: as §1

[3] = test system: large crabgrass (Digitaria sanguinalis)
Method in brief: as §1

[4] = test system: yellow nutsedge (Cyperus esculentus)
Method in brief: as §1

[5] = test system: cocklebur (Xanthium strumarium)
Method in brief: as §1

kochia (Kochia scoparia) = settings: Postemergence
Method in brief: as §1

wild oat (Avena fatua) = test system: wild oat (Avena fatua)
Method in brief: as §1

[6] = test system: Surinam grass (Brachiaria decumbens)
Method in brief: as §1

[7] = test system: galium (catchweed bedstraw, Galium aparine); settings: Preemergence
Method in brief: as §1

[8] = test system: woolly cupgrass (Eriochloa villosa)
Method in brief: as §1

[9] = test system: sunflower (common oilseed sunflower, Helianthus annuus); settings: Preemergence
Method in brief: as §1

[10] = 31 g ai/ha, scale 0 to 100 (0 no effect, 100 complete control)
[11] = 62 g ai/ha, scale 0 to 100, 0 no effect, 100 complete control
[12] = 125 g ai/ha, scale 0 to 100, 0 no effect, 100 complete control
[13] = Postemergence, 31 g ai/ha, 0 to 100 scale (0 no effect, 100 complete control)
[14] = Postemergence, 125 g ai/ha, scale 0 to 100 (0 no effect, 100 complete control)
[15] = Postemergence, 250 g ai/ha, scale 0 to 100 (0 no effect, 100 complete control), 13 to 15 days
[16] = Postemergence, 62 g ai/ha, scale 0 to 100 (0 no effect, 100 complete control)
[17] = Preemergence, 31 g ai/ha, scale 0 to 100 (0 no effect, 100 complete control)
[18] = Preemergence, 62 g ai/ha, scale 0 to 100, 0 no effect, 100 complete control
[19] = Preemergence, 125 g ai/ha, scale 0 to 100, 0 no effect, 100 complete control
[20] = Preemergence, 250 g ai/ha, 0 to 100 scale

CCCc1ncc(C(=O)C2=C(O)CCCC2=O)c(=O)n1-c1ccccc1 [Compound 217]
80: Plant response rating, Crabgrass, Large [3, 13] | Plant response rating, Cocklebur [5, 13] | Plant response rating, Surinam Grass [6, 16] | Cupgrass, Woolly plant response rating [8, 20]
85: Plant response rating, Crabgrass, Large [3, 16] | Plant response rating, Cocklebur [5, 19] | Cocklebur plant response rating [5, 20] | Plant response rating, Oat, Wild (wild oat (Avena fatua); [15]) | Plant response rating, Surinam Grass [6, 19] | Plant response rating, Sunflower [9, 12] | Sunflower plant response rating ([9]; 250 g ai/ha, 0 to 100 scale)
0: Plant response rating, Oat, Wild (wild oat (Avena fatua); [17]) | Plant response rating, Oat, Wild (wild oat (Avena fatua); [18]) | Plant response rating, Oat, Wild (wild oat (Avena fatua); [19]) | Oat, Wild plant response rating (wild oat (Avena fatua); [20]) | Plant response rating, Galium [7, 10] | Plant response rating, Cupgrass, Woolly [8, 17]
10: Plant response rating, Nutsedge, Yellow [4, 13] | Plant response rating, Galium [7, 11]
55: Plant response rating, Cupgrass, Woolly [8, 15]
5: Plant response rating, Cupgrass, Woolly [8, 18]
65: Plant response rating, Nutsedge, Yellow [4, 18] | Plant response rating, Cupgrass, Woolly [8, 19]
95: Plant response rating, Nightshade [1, 10] | Plant response rating, Lambsquarters [2, 17] | Plant response rating, Crabgrass, Large [3, 17] | Plant response rating, Surinam Grass [6, 15]
30: Plant response rating, Oat, Wild (wild oat (Avena fatua); [13])
40: Plant response rating, Oat, Wild (wild oat (Avena fatua); [16])
45: Plant response rating, Surinam Grass [6, 17] | Plant response rating, Cupgrass, Woolly [8, 14] | Plant response rating, Cupgrass, Woolly [8, 16]
90: Plant response rating, Lambsquarters [2, 13] | Plant response rating, Crabgrass, Large [3, 14] | Nutsedge, Yellow plant response rating [4, 20] | Surinam Grass plant response rating [6, 20] | Galium plant response rating ([7]; 250 g ai/ha, 0 to 100 scale)
100: Plant response rating, Nightshade [1, 11] | Plant response rating, Nightshade [1, 12] | Nightshade plant response rating ([1]; 250 g ai/ha, 0 to 100 scale) | Plant response rating, Lambsquarters [2, 14] | Plant response rating, Lambsquarters [2, 15] | Plant response rating, Lambsquarters [2, 16] | Plant response rating, Lambsquarters [2, 18] | Plant response rating, Lambsquarters [2, 19] | Lambsquarters plant response rating [2, 20] | Plant response rating, Crabgrass, Large [3, 18] | Plant response rating, Crabgrass, Large [3, 19] | Crabgrass, Large plant response rating [3, 20] | Plant response rating, Cocklebur [5, 15] | Plant response rating, Kochia (kochia (Kochia scoparia); 125 g ai/ha, scale 0 to 100 (0 no effect, 100 complete control)) | Plant response rating, Kochia (kochia (Kochia scoparia); 250 g ai/ha, scale 0 to 100 (0 no effect, 100 complete control), 13 to 15 days)
25: Plant response rating, Cupgrass, Woolly [8, 13]
70: Plant response rating, Nutsedge, Yellow [4, 14] | Plant response rating, Nutsedge, Yellow [4, 15] | Plant response rating, Nutsedge, Yellow [4, 19] | Plant response rating, Surinam Grass [6, 13] | Plant response rating, Galium [7, 12] | Plant response rating, Sunflower [9, 10]
75: Plant response rating, Kochia (kochia (Kochia scoparia); 31 g ai/ha, 0 to 100 scale (0 no effect, 100 complete control)) | Plant response rating, Surinam Grass [6, 18] | Plant response rating, Sunflower [9, 11]
60: Plant response rating, Nutsedge, Yellow [4, 16] | Plant response rating, Nutsedge, Yellow [4, 17]
98: Plant response rating, Crabgrass, Large [3, 15] | Plant response rating, Cocklebur [5, 14] | Plant response rating, Cocklebur [5, 16] | Plant response rating, Kochia (kochia (Kochia scoparia); 62 g ai/ha, scale 0 to 100 (0 no effect, 100 complete control))
